The experiment has as its target T1, PYL-MCP and LambdaN-ABI (Arabidopsis thaliana, UniProt Q8VZS8).
T1 construct: expressed in transfected cells; host or cells: HEK293T
In words: Split-pegRNA recording of abscisic acid (ABA)-induced dimerization of PYL-MCP and LambdaN-ABI. Format: cell-based. The note with it: PYL-ABI pair, abscisic acid added to cell culture. The source says:
FIG. 3. Recording protein-protein interaction and small molecule exposure using Split-pegRNA recorders. a-b. Design of Split-pegRNA recorder with protein adaptors to record protein-protein interaction (a) and exposure to small molecule (b). c. Normalized editing efficiency of different pairs of constructs tagged with MCP and LambdaN adaptors. Editing efficiencies are scaled (“normalized”) to positive editing control of CTT insertion to HEK3 locus by epegRNA (“eCTT control”). In MCP-LambdaN condition, a single protein-expression construct with MCP tethered with LambdaN was transfected instead of a pair of protein-expression constructs. […]
In the past 30 years, several chemicals have been identified as critical signaling molecules for promoting protein-protein interactions^8. We reasoned that the exposure of these “molecular glue” small molecules to cells can be recorded into the genome using specifically engineered split-pegRNA recorders. […]
Sequencing reads from Illumina MiSeq™ and NextSeq™ platforms are first demultiplexed using BCL2fastq software (Illumina). […] Editing efficiencies were calculated using pattern-matching software such as Regular Expression (package REGEX) in Python, counting correct amplicon reads with or without intended edits (CTT insertion to HEK3 locus^1).

T1 sequence (Q8VZS8 other isoform, or with tags, fused parts or gaps): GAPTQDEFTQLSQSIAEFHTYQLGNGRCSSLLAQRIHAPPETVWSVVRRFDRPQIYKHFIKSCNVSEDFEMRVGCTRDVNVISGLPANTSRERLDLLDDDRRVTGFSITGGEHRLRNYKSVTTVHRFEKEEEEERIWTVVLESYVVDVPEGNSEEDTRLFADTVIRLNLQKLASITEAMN
T1 sequence (P49597 other isoform, or with tags, fused parts or gaps D143A, further chain): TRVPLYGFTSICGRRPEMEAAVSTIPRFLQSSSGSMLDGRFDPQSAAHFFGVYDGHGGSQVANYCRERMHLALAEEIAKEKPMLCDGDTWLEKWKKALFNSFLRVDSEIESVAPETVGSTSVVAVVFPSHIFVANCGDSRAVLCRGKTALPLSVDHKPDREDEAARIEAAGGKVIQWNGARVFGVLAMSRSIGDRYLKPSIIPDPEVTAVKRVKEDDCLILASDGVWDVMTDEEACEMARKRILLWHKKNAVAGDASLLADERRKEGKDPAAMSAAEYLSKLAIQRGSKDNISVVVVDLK

`CC1=CC(=O)CC(C)(C)[C@@]1(O)/C=C/C(C)=C\C(=O)O` [Abscisic acid]: the “change in editing efficiency on addition of small molecule” value was “strong increase in the editing efficiency”.

These data come from patent US20260176627A1, “DUAL-RNA-GUIDED, SPLIT-PEGRNA RECORDER FOR MOLECULAR INTERACTION” (University of Washington, priority 2022, published 2026).
